Experimental data as given in patent publication US10376520B2, “Methods for the treatment of cardiovascular disorders” (Galapagos NV, priority 2015, dated 2019).

Test system: RA patients
Assay: Atherogenic index, Study 1 (RA patients, add-on to MTX)
Format: in vivo, human
Procedure: As used herein, the term ‘atherogenic index’ refers to
Double-blind, placebo-controlled add on study in subjects with moderately to severely active RA who have an inadequate response to methotrexate (MTX) (oral or parenteral).
Compound 1 (dosed as a [Compound 1:HCl:3H2O]) is dosed for twelve weeks once daily (q.d.) (50 mg, 100 mg or 200 mg) or twice daily (b.i.d.) (25 mg, 50 mg or 100 mg); or placebo.
At Week 12, the subjects on placebo who have not achieved 20% improvement in swollen joint count (SJC66) and tender joint count (TJC68) are re-randomized automatically to receive Compound 1 (dosed as a [Compound 1:HCl:3H2O]) either at 100 mg q.d. or 50 mg b.i.d. doses in a blinded fashion; subjects on 50 mg q.d. who have not achieved 20% improvement in SJC66 and TJC68 will be assigned to 100 mg q.d. and subjects on 25 mg b.i.d. that have not achieved a 20% improvement in SJC66 and TJC68 will be assigned to 50 mg b.i.d. Subjects who switch treatment at week 12 are handled as if they discontinued at week 12 for the purpose of statistical analysis, whereas subjects in the other groups will maintain their randomized treatment until Week 24.
The atherogenic index has been identified to be a good predictor of cardiovascular disorders risks and is calculated as follows: […]

[1] = 25 mg b.i.d continued over 24 weeks, week 1
[2] = 25 mg b.i.d continued over 24 weeks, week 2
[3] = 25 mg b.i.d continued over 24 weeks, week 4
[4] = 25 mg b.i.d continued over 24 weeks, week 8
[5] = 25 mg b.i.d continued over 24 weeks, week 12
[6] = 25 mg b.i.d continued over 24 weeks, week 16
[7] = 25 mg b.i.d continued over 24 weeks, week 20
[8] = 25 mg b.i.d continued over 24 weeks, week 24
[9] = 50 mg b.i.d. continued over 24 weeks, week 1
[10] = 50 mg b.i.d. continued over 24 weeks, week 2
[11] = 50 mg b.i.d. continued over 24 weeks, week 4
[12] = 50 mg b.i.d. continued over 24 weeks, week 8
[13] = 50 mg b.i.d. continued over 24 weeks, week 12
[14] = 50 mg b.i.d. continued over 24 weeks, week 16
[15] = 50 mg b.i.d. continued over 24 weeks, week 20
[16] = 50 mg b.i.d. continued over 24 weeks, week 24
[17] = 50 mg q.d. continued over 24 weeks, week 1
[18] = 50 mg q.d. continued over 24 weeks, week 2
[19] = 50 mg q.d. continued over 24 weeks, week 4
[20] = 50 mg q.d. continued over 24 weeks, week 8
[21] = 50 mg q.d. continued over 24 weeks, week 12
[22] = 50 mg q.d. continued over 24 weeks, week 16
[23] = 50 mg q.d. continued over 24 weeks, week 20
[24] = 50 mg q.d. continued over 24 weeks, week 24

Structure (SMILES): O=C(Nc1nc2cccc(-c3ccc(CN4CCS(=O)(=O)CC4)cc3)n2n1)C1CC1 [Compound 1, cyclopropanecarboxylic acid {5-[4-(1,1-dioxo-thiomorpholin-4-ylmethyl)-phenyl]-[1,2,4]triazolo[1,5-a]pyridin-2yl}-amide]
- Atherogenic index Mean CFB - 24 weeks results [1]: 0.08 mmol/L
- Atherogenic index Mean percentage CFB - 24 weeks results [1]: 2.78%
- Atherogenic index Median CFB - 24 weeks results [1]: 0.10 mmol/L
- Atherogenic index Mean CFB - 24 weeks results [2]: -0.01 mmol/L
- Atherogenic index Mean percentage CFB - 24 weeks results [2]: 0.75%
- Atherogenic index Median CFB - 24 weeks results [2]: 0.00 mmol/L
- Atherogenic index Mean CFB - 24 weeks results [3]: -0.02 mmol/L
- Atherogenic index Mean percentage CFB - 24 weeks results [3]: 0.43%
- Atherogenic index Median CFB - 24 weeks results [3]: 0.00 mmol/L
- Atherogenic index Mean CFB - 24 weeks results [4]: -0.05 mmol/L
- Atherogenic index Mean percentage CFB - 24 weeks results [4]: −0.86%
- Atherogenic index Median CFB - 24 weeks results [4]: -0.10 mmol/L
- Atherogenic index Mean CFB - 24 weeks results [5]: 0.05 mmol/L
- Atherogenic index Mean percentage CFB - 24 weeks results [5]: 2.68%
- Atherogenic index Median CFB - 24 weeks results [5]: 0.00 mmol/L
- Atherogenic index Mean CFB - 24 weeks results [6]: -0.03 mmol/L
- Atherogenic index Mean percentage CFB - 24 weeks results [6]: 0.32%
- Atherogenic index Median CFB - 24 weeks results [6]: 0.00 mmol/L
- Atherogenic index Mean CFB - 24 weeks results [7]: 0.09 mmol/L
- Atherogenic index Mean percentage CFB - 24 weeks results [7]: 4.42%
- Atherogenic index Median CFB - 24 weeks results [7]: 0.00 mmol/L
- Atherogenic index Mean CFB - 24 weeks results [8]: 0.02 mmol/L
- Atherogenic index Mean percentage CFB - 24 weeks results [8]: 2.01%
- Atherogenic index Median CFB - 24 weeks results [8]: 0.00 mmol/L
- Atherogenic index Mean CFB - 24 weeks results [9]: -0.06 mmol/L
- Atherogenic index Mean percentage CFB - 24 weeks results [9]: −0.30%
- Atherogenic index Median CFB - 24 weeks results [9]: 0.00 mmol/L
- Atherogenic index Mean CFB - 24 weeks results [10]: -0.21 mmol/L
- Atherogenic index Mean percentage CFB - 24 weeks results [10]: −4.55%
- Atherogenic index Median CFB - 24 weeks results [10]: -0.10 mmol/L
- Atherogenic index Mean CFB - 24 weeks results [11]: -0.14 mmol/L
- Atherogenic index Mean percentage CFB - 24 weeks results [11]: −2.75%
- Atherogenic index Median CFB - 24 weeks results [11]: -0.10 mmol/L
- Atherogenic index Mean CFB - 24 weeks results [12]: -0.18 mmol/L
- Atherogenic index Mean percentage CFB - 24 weeks results [12]: −3.44%
- Atherogenic index Median CFB - 24 weeks results [12]: -0.10 mmol/L
- Atherogenic index Mean CFB - 24 weeks results [13]: -0.07 mmol/L
- Atherogenic index Mean percentage CFB - 24 weeks results [13]: −0.87%
- Atherogenic index Median CFB - 24 weeks results [13]: 0.00 mmol/L
- Atherogenic index Mean CFB - 24 weeks results [14]: -0.13 mmol/L
- Atherogenic index Mean percentage CFB - 24 weeks results [14]: −2.57%
- Atherogenic index Median CFB - 24 weeks results [14]: -0.10 mmol/L
- Atherogenic index Mean CFB - 24 weeks results [15]: -0.11 mmol/L
- Atherogenic index Median CFB - 24 weeks results [15]: -0.10 mmol/L
- Atherogenic index Mean CFB - 24 weeks results [16]: -0.04 mmol/L
- Atherogenic index Mean percentage CFB - 24 weeks results [16]: 0.23%
- Atherogenic index Median CFB - 24 weeks results [16]: 0.00 mmol/L
- Atherogenic index Mean CFB - 24 weeks results [17]: -0.02 mmol/L
- Atherogenic index Mean percentage CFB - 24 weeks results [17]: −0.40%
- Atherogenic index Median CFB - 24 weeks results [17]: -0.10 mmol/L
- Atherogenic index Mean CFB - 24 weeks results [18]: -0.15 mmol/L
- Atherogenic index Mean percentage CFB - 24 weeks results [18]: −3.84%
- Atherogenic index Median CFB - 24 weeks results [18]: -0.20 mmol/L
- Atherogenic index Mean CFB - 24 weeks results [19]: -0.11 mmol/L
- Atherogenic index Mean percentage CFB - 24 weeks results [19]: −2.94%
- Atherogenic index Median CFB - 24 weeks results [19]: -0.10 mmol/L
- Atherogenic index Mean CFB - 24 weeks results [20]: 0.00 mmol/L
- Atherogenic index Mean percentage CFB - 24 weeks results [20]: 0.36%
- Atherogenic index Median CFB - 24 weeks results [20]: -0.10 mmol/L
- Atherogenic index Mean CFB - 24 weeks results [21]: 0.01 mmol/L
- Atherogenic index Mean percentage CFB - 24 weeks results [21]: 1.11%
- Atherogenic index Median CFB - 24 weeks results [21]: 0.00 mmol/L
- Atherogenic index Mean CFB - 24 weeks results [22]: -0.01 mmol/L
- Atherogenic index Mean percentage CFB - 24 weeks results [22]: 0.09%
- Atherogenic index Median CFB - 24 weeks results [22]: 0.00 mmol/L
- Atherogenic index Mean CFB - 24 weeks results [23]: -0.08 mmol/L
- Atherogenic index Mean percentage CFB - 24 weeks results [23]: −1.32%
- Atherogenic index Median CFB - 24 weeks results [23]: -0.10 mmol/L
- Atherogenic index Mean CFB - 24 weeks results [24]: -0.12 mmol/L
- Atherogenic index Mean percentage CFB - 24 weeks results [24]: −3.08%
- Atherogenic index Median CFB - 24 weeks results [24]: -0.10 mmol/L
- Atherogenic index Mean CFB (50 mg q.d., week 1): -0.02 mmol/L
- Atherogenic index Mean percentage CFB - 12 weeks results (50 mg q.d., week 1): 0%
